Source: patent publication US8962003B2, “Insect behaviour modifying compounds” (The New Zealand Institute for Plant and Food Research …, priority 2003, dated 2015)

What was measured:
Thrips tabaci = conditions: cited from earlier work
[1] = test system: Frankliniella occidentalis; experiment: Y-tube olfactometer bioassay; format: in vivo; conditions: female Frankliniella occidentalis
Protocol: The thrips behaviour-modifying activity of a compound may be evaluated in a glass Y-tube olfactometer following the method described by de Kogel et al. (de Kogel, W. J., Koschier, E. H. and Visser, J. H. Proc. Exper. & Appl. Entomol., N. E. V. Amsterdam, (1999) 10, 131-135.) and Koschier et al. (Koschier, E. H., De Kogel, W. J. and Visser, J. H. (2000) Jounrnal of Chemical Ecology, 26, 2643-2655).
The olfactory behaviour of thrips toward volatile compounds was evaluated in a glass Y-tube olfactometer following the method described by de Kogel et al. (de Kogel, W. J., Koschier, E. H. and Visser, J. H. Proc. Exper. & Appl. Entomol., N. E. V. Amsterdam, (1999) 10, 131-135.) and Koschler et al. (Koschier, E. H., De Kogel, W. J. and Visser, J. H. (2000) Journal of Chemical Ecology, 26, 2643-2655.). The Y-tube has two branching arms at an angle of 45° leading into a single tube, all 60 mm long, with an internal diameter of 5 mm. The arms of the Y-tube were connected to glass Wheaton Micro Kit® adapters that were in turn attached to 4 ml glass vials each containing a 1 cm^2 piece of filter paper (Whatman No. 1). The Y-tube and Wheaton apparatus were placed in a grey-box (to prevent external stimuli influencing thrips' behaviour), located in a darkened, air-conditioned room (22±3° C.). The Y-tube was placed at an inclining position of 25° between the Y-tube and horizontal plane and illuminated from above by a halogen lamp (780 lux). One microliter of the volatile compounds, either undiluted or diluted in hexane (95%, Pronalys AR), was applied to filter paper in one vial, while 1 μl of hexane was applied to filter paper held in the second vial. Air was drawn through activated charcoal before entering the Wheaton apparatus and Y-tube using a suction pump (AR Harris Co. Ltd, Christchurch) producing an airflow of 5 cm/s through each arm and 10 cm/s at the base of the Y-tube. Air was drawn through for 30 min before introducing the first thrips. Connections between the activated charcoal, Wheaton apparatus, Y-tube and suction pump consisted of silicone tubing.
An individual female Frankliniella occidentalis thrips of unknown age, that had been starved overnight, was released into the Y-tube using a small aspirator. The aspirator was made by placing a 1 ml pipette tip over the end of silicone tubing (5 mm diameter) the end of which was covered with fine mesh; the pipette tip was cut so it projected 5 mm beyond the end of the silicone tubing. A thrips was sucked up into the pipette tip, which was then placed at the base of the Y-tube. Most thrips walked up into the Y-tube within a few seconds, at which time the silicone air suction tubing was reconnected to the glass Y. The choice between clean or odour laden airflow was recorded when the thrips reached the far end of one arm and only those thrips that made the choice within 3 min were recorded. After every 5 thrips the Y-tube and Wheaton apparatus were rotated […] to avoid position effects. After 25 choices were recorded, the Y-tube and Wheaton apparatus were thoroughly cleaned with acetone (99.5%, BDH) and allowed to dry before repeating the experiment. Each compound and dilution was replicated 3 times.

[2] = test system: Frankliniella occidentalis; experiment: Greenhouse trials with water traps or yellow sticky traps; format: in vivo; conditions: 24 h, capsicum greenhouse, t-value in brackets in same cell
Excerpt: Greenhouse trials were undertaken using water traps similar to those used in the field trials (Example 2), or yellow sticky traps (Veg-Gro Supplies Ltd, Auckland) to examine the response of thrips to volatile compounds. The greenhouse, located in Auckland, is ≈88×200 m, constructed of glass, and is used to grow capsicum (Capsicum annuum var. Special, Fiesta, Boogie and Stirit). Water traps were placed 20 to 24 m apart within a row and 24 m apart between rows. There were 6 baited water traps for each compound tested and 6 water-only traps randomly positioned in a 6×2 grid in the greenhouse. Traps were positioned just above the crop canopy. Water traps (2 L containers, 16×16×8.5 cm) were assembled as described in Example 2 and left in the greenhouse for 24 h, after which time the containers were sealed for transport to a laboratory. Insects from each water trap were transferred to 5 ml glass tubes containing 75% ethanol within 24 h of collecting them from the greenhouse. Catches from each treatment were analysed under a stereomicroscope (100×) and the proportion of Frankliniella occidentalis was determined.
Yellow sticky traps (24.4×20 cm) were treated with a compound or water using a 30 ml spray mist dripulator (Arthur Holmes, Wellington) held 10 cm away from the sticky trap. Four sprays were applied to each side, coating the sticky trap in approximately 1 ml of water or compound. Sticky traps sprayed with the same treatment were separated using black metal foldback clips (19 mm, Celco), suspended within a cardboard box (29.5×22.3×30.2 cm), which was in turn sealed within a plastic bag for transport to the greenhouse. Traps were suspended in the greenhouse just above the crop canopy within 3 h after spraying, using the same layout as for the water traps (20 to 24 m apart within a row, 24 m between rows, in a 6×2 grid). After 24 h the traps were collected by wrapping each trap in plastic wrap for transport to the laboratory. The total number of thrips on the traps were counted using 10× magnification. Thrips were removed from the sticky traps using De-Solv-it® and Johnsons baby oil®. A subsample from each treatment was further analysed under a stereomicroscope (100×) and the proportion of Frankliniella occidentalis was determined.

[3] = test system: Frankliniella occidentalis; conditions: literature; anisaldehyde with blue sticky or yellow water traps; WO 03/055309 Y-tube; cited from earlier work
Thrips obscuratus = conditions: Penman et al. 1982; cited from earlier work
Thrips hawaiiensis = conditions: field trials; cited from earlier work
Thrips coloratus = conditions: field trials; cited from earlier work
Thrips flavus = conditions: cited from earlier work

| Compound | Attractancy to Thrips tabaci (literature) (Thrips tabaci) | MAC (%) = Minimum Active Concentration to elicit a response from thrips (P < 0.05) ([1]; 1 µl undiluted or diluted in hexane) | % Response: percentage of thrips to walk up odour-laden arm ([1]; same cell prints a '(t value)' in brackets) | Average ratio of thrips caught relative to water treated traps ([2]; Water trap, around 66% of thrips caught were Frankliniella occidentalis) | Average ratio of thrips caught relative to water treated traps ([2]; Yellow sticky trap, about 1 ml sprayed, >95% of thrips caught were Frankliniella occidentalis) | Attractancy to Frankliniella occidentalis (literature) [3] | Attractancy to Thrips obscuratus (literature) (Thrips obscuratus) | Attractancy to Thrips hawaiiensis (literature) (Thrips hawaiiensis) | Attractancy to Thrips coloratus (literature) (Thrips coloratus) | Attractancy to Thrips flavus (literature) (Thrips flavus) |
| --- | --- | --- | --- | --- | --- | --- | --- | --- | --- | --- |
| CCOC(=O)c1cccnc1 [Ethyl nicotinate, reference compound] | varied in its attractiveness | 0.01% | 60.0 (0.043) % | 1 (0.1) | 1.1 (0.4) | less attractive | potent attractant | – | – | – |
| CCOC(=O)c1ccccc1N [ethyl anthranilate] | – | – | – | – | – | – | – | attractant | attractant | attractant |
| COC(=O)c1ccccc1N [methyl anthranilate] | not for Thrips tabaci | – | – | – | – | – | – | attractant | attractant | – |
